In US12668584B2, “Heterocyclic compounds as kinase inhibitors for therapeutic uses” (National Health Research Institutes, priority 2019, dated 2026):

Tests used:
M-NFS-60 cells = test: MTS cell viability assay, M-NFS-60; format: cell-based; conditions: 72 h, read-out: Cellular Proliferation Assay M-NFS-60 (nM) GI50
Experimental: (§1) Studies were conducted to evaluate […] anticancer activity of certain compounds described in EXAMPLE 1 using 3-(4,5-dimethylthiazol-2-yl)-5-(3-carboxymethoxyphenyl)-2-(4-sulfophenyl)-2H-tetrazolium) (MTS) cell viability assays. Results from these studies are shown in Table 2 below (see columns 3 and 4).
(§2) The cell lines M-NFS-60 (ATCC® CRL-1838™) and BaF3-CSF1R-1600 were obtained from American Type Culture Collection (ATCC, Manassas, VA, USA). The stable BaF3-CSF1R-1600 cell line expresses ETV6-CSF1R fusion protein consisting of N-terminal ETS-variant gene 6 protein (ETV6 residues M1-G337) and CSF1R tyrosine kinase (CSF1R residues L533-C972). The M-NSF-60 and BaF3-CSF1R-1600 cells were cultured in RPMI1640 medium supplemented with 10% fetal bovine serum, 0.05 mM 2-ME, 10 U/ml penicillin, and 10 µg/ml streptomycin at 37° C. and 5% CO2.
(§3) M-NFS-60 and BaF3-CSF1R-1600 cells were seeded in 96-well plates at a density of 10000 cells/100 μl and 8000 cells/100 μl per well, respectively, for 16 h and treated with vehicle or various concentrations of test compounds in medium for 72 h. Viable cells were quantified using the MTS method (Promega, Madison, WI, USA) according to manufacturer's recommended protocol. The results were determined by measuring absorbance at 490 nm using a plate reader (Victor 2). The GI50 value was defined as the amount of compound that caused 50% reduction in cell viability in comparison with DMSO-treated (vehicle) control and was calculated using Prism GraphPad Prism version 6 software (GraphPad).

[1] = target: T1, CSF1R kinase (recombinant N-terminal GST-CSF1R, residues L534-C972) (Homo sapiens, UniProt P07333); test: CSF1R Kinase-Glo assay; format: biochemical; conditions: 40 μM ATP, 30° C. 180 min, read-out: Enzymatic Assay CSF1R enzyme IC50
T1 construct: Recombinant N-terminal GST-CSF1R (CSF1R residues L534-C972) containing the CSFIR kinase domain; made in house; host or cells: Sf9 insect cells
T1 sequence (P07333 534-972): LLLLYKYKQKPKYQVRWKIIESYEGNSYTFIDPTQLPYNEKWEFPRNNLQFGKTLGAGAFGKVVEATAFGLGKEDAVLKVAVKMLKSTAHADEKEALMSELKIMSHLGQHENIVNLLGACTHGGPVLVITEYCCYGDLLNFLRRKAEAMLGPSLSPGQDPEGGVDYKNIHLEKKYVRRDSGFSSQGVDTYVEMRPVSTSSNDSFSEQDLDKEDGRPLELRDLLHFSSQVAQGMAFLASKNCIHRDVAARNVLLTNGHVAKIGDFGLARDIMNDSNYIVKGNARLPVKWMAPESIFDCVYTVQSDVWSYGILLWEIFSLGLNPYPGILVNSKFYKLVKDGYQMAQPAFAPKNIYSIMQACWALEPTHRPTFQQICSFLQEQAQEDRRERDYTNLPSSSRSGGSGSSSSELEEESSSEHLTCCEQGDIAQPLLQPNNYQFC
Experimental: A study was conducted to test certain compounds described in EXAMPLE 1 in inhibiting CSF1R kinase activity.
Activity of CSF1R kinase was determined using a CSF1R Kinase-Glo assay. Recombinant N-terminal GST-CSF1R (CSF1R residues L534-C972) containing the CSFIR kinase domain was expressed in Sf9 insect cells and purified. The kinase assay was carried out in 96-well plates at 30° C. for 180 min with the tested compounds in a final volume of 50 μl including the following components: 25 mM Tris-HCl pH 7.4, 4 mM MnCl2, 10 mM MgCl2, 0.01% BSA, 0.5 mM NA3VO4, 0.02% Triton X-100, 40 μM ATP, 2 mM DTT and 20 μM poly(Glu,Tyr) 4:1 peptide, and 600 ng recombinant GST-CSF1R. Following incubation, 50 μl Kinase-Glo Plus Reagent (Promega, Madison, WI, USA) was added and the mixture was incubated at 25° C. for 20 min. A 70-μL aliquot of each reaction mixture was transferred to a black microtiter plate and luminescence was measured on Wallac Vector 1420 multilabel counter (PerkinElmer, Shelton, CT, USA). Percentage inhibition values were obtained by comparison of reaction rate with the rates in control wells (i.e., in the absence of test compound). IC50 values were calculated from a series of percentage inhibition values determined at a range of test compound concentrations using GraphPad Prism version 6 software (GraphPad, San Diego, CA, USA).

[2] = tested on: BaF3-CSF1R-1600 cells (express ETV6-CSF1R fusion protein); test: MTS cell viability assay, BaF3-CSF1R-1600; format: cell-based; conditions: 72 h, read-out: Cellular Proliferation Assay BaF3-CSF1R GI50
Experimental: as §1, §2, §3

| SMILES | GI50 (M-NFS-60 cells) | IC50 [1] | GI50 [2] |
| --- | --- | --- | --- |
| CN(C)c1ccc2c(Oc3ccc(NC(=O)Nc4cccc(F)c4)cc3)ncnc2c1 [Compound 18] | 100 to 1000 nM | < 20 nM | 20 to 100 nM |
| CN(C)c1ccc2c(Oc3ccc(NC(=O)Nc4ccc(Cl)cc4)cc3)ncnc2c1 [Compound 19] | 20 to 100 nM | < 20 nM | < 20 nM |
| COC1CCN(c2ccc3c(Oc4ccc(NC(=O)Nc5ccc(Cl)cc5)cc4)ncnc3c2)CC1 [Compound 20] | 20 to 100 nM | < 20 nM | 20 to 100 nM |
| COc1ccc(NC(=O)Nc2ccc(Oc3ncnc4cc(N(C)C)ccc34)cc2)cc1 [Compound 21] | 20 to 100 nM | < 20 nM | 20 to 100 nM |
| CN(C)C1CCN(c2ccc3c(Oc4ccc(NC(=O)NCc5ccc(C(F)(F)F)nc5)cc4)ncnc3c2)CC1 [Compound 23] | 20 to 100 nM | 20 to 100 nM | 20 to 100 nM |
| COC1CCN(c2ccc3c(Oc4ccc(NC(=O)NCc5ccc(C(F)(F)F)nc5)cc4)ncnc3c2)CC1 [Compound 24] | 20 to 100 nM | < 20 nM | 20 to 100 nM |
| CN(C)c1ccc2c(Oc3ccc(NC(=O)NCc4ccc(C(F)(F)F)nc4)cc3Cl)ncnc2c1 [Compound 25] | > 1000 nM | 20 to 100 nM | 100 to 1000 nM |
| COc1cc2nccc(Oc3ccc(NC(=O)NCc4ccc(C(F)(F)F)nc4)cc3)c2cc1OC [Compound 26] | 100 to 1000 nM | 20 to 100 nM | 20 to 100 nM |
| CN1CCN(c2ccc3c(Oc4ccc(NC(=O)NCc5ccc(C(F)(F)F)nc5)cc4)ncnc3c2)CC1 [Compound 28] | 20 to 100 nM | 20 to 100 nM | < 20 nM |
| O=C(NCc1ccc(C(F)(F)F)nc1)Nc1ccc(Oc2ncnc3cc(N4CCC(O)CC4)ccc23)cc1 [Compound 30, 1-(4-((7-(4-hydroxypiperidin-1-yl)quinazolin-4-yl)oxy)phenyl)-3-((6-(trifluoromethyl)pyridin-3-yl)methyl)urea] | 20 to 100 nM | < 20 nM | 20 to 100 nM |
| O=C(NCc1ccc(C(F)(F)F)nc1)Nc1ccc(Oc2ncnc3cc(Br)ccc23)cc1 [Compound 31, 1-(4-((7-Bromoquinazolin-4-yl)oxy)phenyl)-3-((6-(trifluoromethyl)pyridin-3-yl)methyl)urea] | > 1000 nM | 100 to 1000 nM | 100 to 1000 nM |
| O=C(NCc1ccc(C(F)(F)F)nc1)Nc1ccc(Oc2ncnc3cc(F)ccc23)cc1 [Compound 32] | > 1000 nM | 20 to 100 nM | 100 to 1000 nM |
| CN(C)c1ccc2c(Oc3ccc(NC(=O)NCc4ccc(C(F)(F)F)nc4)c(Cl)c3)ncnc2c1 [Compound 33] | 100 to 1000 nM | 20 to 100 nM | 100 to 1000 nM |
| C[C@@H]1CN(c2ccc3c(Oc4ccc(NC(=O)NCc5ccc(C(F)(F)F)nc5)cc4)ncnc3c2)C[C@H](C)N1 [Compound 34, 1-(4-((7-(3,5-Dimethylpiperazin-1-yl)quinazolin-4-yl)oxy)phenyl)-3-((6-(trifluoromethyl)pyridin-3-yl)methyl)urea] | 100 to 1000 nM | < 20 nM | < 20 nM |
| CN(CCO)c1ccc2c(Oc3ccc(NC(=O)NCc4ccc(C(F)(F)F)nc4)cc3)ncnc2c1 [Compound 40] | 100 to 1000 nM | 20 to 100 nM | 20 to 100 nM |
| COc1cc(Oc2ncnc3cc(N(C)C)ccc23)ccc1NC(=O)NCc1ccc(C(F)(F)F)nc1 [Compound 42] | 100 to 1000 nM | < 20 nM | 20 to 100 nM |
| O=C(NCc1ccc(C(F)(F)F)nc1)Nc1ccc(Oc2ncnc3cc(N[C@@H]4CCCC[C@H]4O)ccc23)cc1 [Compound 43] | 100 to 1000 nM | 20 to 100 nM | 100 to 1000 nM |

| SMILES | GI50 (M-NFS-60 cells) | IC50 [1] | GI50 [2] |
| --- | --- | --- | --- |
| CN(C)CCN(C)c1ccc2c(Oc3ccc(NC(=O)NCc4ccc(C(F)(F)F)nc4)cc3)ncnc2c1 [Compound 44] | 100 to 1000 nM | < 20 nM | 20 to 100 nM |
| CN(CCCN1CCOCC1)c1ccc2c(Oc3ccc(NC(=O)NCc4ccc(C(F)(F)F)nc4)cc3)ncnc2c1 [Compound 45] | 100 to 1000 nM | < 20 nM | 20 to 100 nM |
| CN(C)c1ccc2c(Oc3ccc(NC(=O)NCc4ccc(S(N)(=O)=O)cc4)cc3)ncnc2c1 [Compound 49] | > 1000 nM | < 20 nM | 100 to 1000 nM |
| CN(C)c1ccc2c(Oc3ccc(NC(=O)NCc4ccccc4)cc3)ncnc2c1 [Compound 51] | 20 to 100 nM | < 20 nM | 20 to 100 nM |
| CN(C)c1ccc2c(Oc3ccc(NC(=O)NCc4ccc(C(F)(F)F)cc4)cc3)ncnc2c1 [Compound 56] | 100 to 1000 nM | 20 to 100 nM | 20 to 100 nM |
| CN(C)c1ccc2c(Oc3ccc(NC(=O)NCc4ccc(OC(F)(F)F)cc4)cc3)ncnc2c1 [Compound 57] | 100 to 1000 nM | < 20 nM | 100 to 1000 nM |
| CN(C)c1ccc2c(Oc3ccc(NC(=O)NCCc4ccccc4)cc3)ncnc2c1 [Compound 58] | 100 to 1000 nM | < 20 nM | 20 to 100 nM |
| COc1ccc(CNC(=O)Nc2ccc(Oc3ncnc4cc(N(C)C)ccc34)cc2)cc1 [Compound 59] | 20 to 100 nM | < 20 nM | 20 to 100 nM |
| CN(C)c1ccc2c(Oc3ccc(NC(=O)NCc4ccco4)cc3)ncnc2c1 [Compound 63] | 100 to 1000 nM | 20 to 100 nM | 100 to 1000 nM |
| Cc1ccc(CNC(=O)Nc2ccc(Oc3ncnc4cc(N(C)C)ccc34)cc2)cn1 [Compound 65, 1-(4-((7-(dimethylamino)quinazolin-4-yl)oxy)phenyl)-3-((6-methylpyridin-3-yl)methyl)urea] | 20 to 100 nM | < 20 nM | 20 to 100 nM |
| CN(C)c1ccc2c(Oc3ccc4c(cnn4C(=O)NCc4ccc(C(F)(F)F)nc4)c3)ncnc2c1 [Compound 68] | 100 to 1000 nM | 20 to 100 nM | 20 to 100 nM |
| C[C@@H]1CN(c2ccc3c(Oc4ccc(NC(=O)NCc5ccc(C(F)(F)F)nc5)cc4)ncnc3c2)C[C@H](C)N1C [Compound 97] | 20 to 100 nM | 20 to 100 nM | 20 to 100 nM |
| O=C(NCc1ccc(C(F)(F)F)nc1)Nc1ccc(Oc2ncnc3cc(N4CCN(C5COC5)CC4)ccc23)cc1 [Compound 98] | 20 to 100 nM | < 20 nM | < 20 nM |
| O=C(NCc1ccc(C(F)(F)F)nc1)Nc1ccc(Oc2ncnc3cc(N4CCOCC4)ccc23)cc1 [Compound 99] | 20 to 100 nM | < 20 nM | 20 to 100 nM |
| CCN1CCN(c2ccc3c(Oc4ccc(NC(=O)NCc5ccc(C(F)(F)F)nc5)cc4)ncnc3c2)CC1 [Compound 100] | 20 to 100 nM | < 20 nM | 20 to 100 nM |
| CN(C)c1ccc2c(Oc3ccc(NC(=O)NCc4nccs4)cc3)ncnc2c1 [Compound 101] | 100 to 1000 nM | 20 to 100 nM | 100 to 1000 nM |
| CN(C)c1ccc2c(Oc3ccc4nc(NCc5ccc(C(F)(F)F)nc5)oc4c3)ncnc2c1 [Compound 102] | > 1000 nM | 20 to 100 nM | 100 to 1000 nM |
